Experimental data reported in patent publication US4720458A, “Heat sensitive bacterial alkaline phosphatase” (priority 1983, dated 1988).

Legend:
[1] = tested on: HK-47 alkaline phosphatase (APase) from Antarctic psychrophilic marine bacterium strain HK-47 (ATCC 39469)
Method: APase activity was routinely assayed at 25° C. for 30 min in 100 μl reaction mixture containing 2 mM p-nitrophenyl phosphate, 5 mM CaCl2, 0.1M CAPS-NaOH buffer pH 9.5. The reaction was stopped by adding 300 μl of 13% (W/V) EDTA-1N NaOH to the reaction mixture. Control mixtures were similarly prepared, except that 13% EDTA-1N NaOH was added before the enzyme activity was assayed. APase activity was measured as the difference in absorbance at 410 nm between samples and control. One unit of APase activity is expressed as 1 micromole of p-nitrophenol (pNp) liberated per minute at 25° C. under the assay conditions. Protein concentration was determined by the Bio-Rad protein assay kit. Bovine serum albumin (BSA) was used as the standard. Homogeneity of the APase was examined by polyacrylamide gel electrophoresis and Bio-Rad (Bio-Rad laboratories, Richmond, CA.) silver stain.

[2] = molecular target: E. coli alkaline phosphatase (APase) (Escherichia coli, UniProt P00634); assay: E. coli APase inactivation by EDTA (comparison enzyme); format: biochemical; settings: read-out: EDTA concentration giving 50% inactivation of E. coli APase
E. coli alkaline phosphatase (APase), sequence (P00634 22-471): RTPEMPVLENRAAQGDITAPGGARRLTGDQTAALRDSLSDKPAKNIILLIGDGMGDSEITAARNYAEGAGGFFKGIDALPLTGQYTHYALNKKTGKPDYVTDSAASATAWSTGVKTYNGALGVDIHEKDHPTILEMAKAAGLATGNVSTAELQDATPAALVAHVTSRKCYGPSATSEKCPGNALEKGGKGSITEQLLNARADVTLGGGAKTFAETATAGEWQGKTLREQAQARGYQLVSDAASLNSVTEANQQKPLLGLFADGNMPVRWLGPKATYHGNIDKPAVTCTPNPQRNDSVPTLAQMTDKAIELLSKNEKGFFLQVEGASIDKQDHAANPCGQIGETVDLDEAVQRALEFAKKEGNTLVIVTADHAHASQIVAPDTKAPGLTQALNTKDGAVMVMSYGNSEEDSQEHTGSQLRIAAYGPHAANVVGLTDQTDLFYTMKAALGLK

## O=C(O)CN(CCN(CC(=O)O)CC(=O)O)CC(=O)O [EDTA]
[1]; at 1 mM EDTA
  inhibition of HK-47 APase activity: ~100%
[1]; ratio of the 50% inhibition concentrations, E. coli vs HK-47
  sensitivity to EDTA of HK-47 APase relative to E. coli APase: 100 fold
[1]; read-out: EDTA concentration inhibiting HK-47 APase activity 50%, HK-47 APase, 'as little as'
  IC50: 0.1 mM
[2]
  IC50: 10 mM
